# In patent US20160050958A1, “IMPROVED SWEETENER” (TATE & LYLE INGREDIENTS AMERICAS LLC, priority 2013, published 2016):
# Key:
# [1] = Round table sweetness evaluation by test panelists (SEV determination against sucrose references); conditions: samples made to equal sweet 10 SEV in neutral pH water, room temperature; references 4-14% sucrose
# Experimental: Round table evaluations were performed with test panelists. Equal sweet 10 SEV concentrations in neutral pH water were made for allulose, AceK and fructose, as well as a composition comprising allulose, AceK and fructose. The components of the test compositions are described in the below tables. The mixed compositions were calculated using the Beidler mixture equation for the sweeteners. The Beidler mixture equation for sweeteners is as follows: […]
# The concentration of each component in the mixture in ppm is divided by SEV (c/R) and is plotted against concentration, c. The slope of the linear regression is […]. The y-intercept of the linear regression multiplied by Rmax is the half-maximal sweetness concentration, 1/K. Rmax and 1/K are the two parameters used in the Beidler equation
# The equal-molar mixture was tested against reference samples for the panelists to determine SEV values. […] The test samples were served in 2 ounce soufflé cups (approximately 60 ml) coded with 3-digit codes at room temperature. A two minute wait period between samples was enforced. Water and unsalted crackers was available for the panelists to clear their palates before and during testing. EyeQuestion was used for ballot development and recording of results. Results were collected in EyeQuestion for calculating approximate SEV level of each test sample.
# The test products analyzed in this experiment are described below in Table 1.
# [2] = % of the sweetness of sucrose; cited from earlier work
SMILES,Mean sucrose equivalent value (SEV) [1],Median sucrose equivalent value (SEV) [1],Sweetness relative to sucrose [2]
"CC1=CC(=O)[N-]S(=O)(=O)O1.[K+] [AceK, potassium salt of 6-methyl-1,2,3-oxathiazine-4(3H)-one 2,2-dioxide]",9.286,8,–
"O=C(CO)[C@@H](O)[C@H](O)[C@H](O)CO [Fructose, fructose]",10.14,10,–
"O=C(CO)C(O)C(O)C(O)CO (stereo not shown) [Allulose, allulose]",10.14,10,around 70%
